Patent publication US20240077500A1, “METHOD FOR THE DETECTION AND TREATMENT OF PROTEINOPATHIES” (Women & Infants Hospital of Rhode Island, priority 2021, published 2024)

Legend:
[1] = test system: hTAU transgenic mouse model; assay: Preeclampsia serum-induced onset of AD features in the hTAU transgenic mouse model (Example 7); assay type: in vivo; conditions: weekly trehalose (2 mg/kg) from 2 months (60 day old mice) for one month; preeclampsia serum injected at 1 month
Procedure: The efficacy with which trehalose inhibits the onset of Alzheimer's disease (AD) features was assessed using the hTAU transgenic mouse model at ages of 3, 6, 9, and 12 months. The onset of AD features were preempted by the administration of serum obtained from pregnant women with normal pregnancy or preeclampsia.

[2] = test system: human trophoblasts; assay: AD serum-induced protein aggregation in primary human trophoblasts, ProteoStat staining; assay type: cell-based; conditions: 50 mM trehalose, 10% AD patient serum, 72 hours
Procedure: (§1) Primary human trophoblasts and SHSY cells were cultured and washed with serum-free media at 70% confluency. The cells were then cultured with 10% serum samples from AD patients for 72 hours (trophoblasts) and 24 hours (neuronal cells), respectively, in the absence or presence of 50 mM trehalose. Cells were stained with ProteoStat dye and evaluated for accumulation of protein aggregates.

[3] = test system: SHSY neuronal cells; assay: AD serum-induced protein aggregation in SHSY neuronal cells, ProteoStat staining; assay type: cell-based; conditions: 50 mM trehalose, 10% AD patient serum, 24 hours
Procedure: as §1

[4] = test system: hTAU mice; assay: Brain pathology (AT180 hyperphosphorylated Tau staining of mPFC) in e-PES injected hTAU mice (Example 8); assay type: in vivo, mouse; conditions: trehalose 2 g/kg/week i.p. for 4 weeks after 4 weeks of e-PES injection
Procedure: 10-12 week old non-pregnant female hTAU mice were injected with e-PE serum (100 μL/week for 4 weeks) followed by treatment (i.p injection) with either saline (100 μL /week) or Trehalose (2 g/kg/week) for 4 weeks, followed by 2 weeks of resting period prior to biological assessments. Medial prefrontal cortex (mPFC) was stained for hyperphosphorylated Tau (using antibody AT180 which detects Tau hyperphosphorylation at T231 & S235). FIG: 19A: Confocal images stained with AT180 are shown that correspond to the mPFC of control (upper), e-PES (middle), and e-PES+Trehalose (bottom), with quantification data in mPFC being present at right panels; inset images are the high magnification image of the selected area; FIG. 19B: provides a bar graph showing the number of AT180 positive cells/0.1 mm^2 in hTAU control, PES 49, and PES 49+trehalose treated mice.
10-12 weeks old non-pregnant female hTAU mice were injected with e-PE serum (100 μL/week for 4 weeks) followed by treatment (i.p injection) with either saline (100 μL/week) or Trehalose (2 g/kg/week) for 4 weeks, followed by 8-10 weeks of resting period prior to biological assessment. Medial prefrontal cortex (mPFC) was stained for hyperphosphorylated Tau (using antibody AT180 which detects Tau hyperphosphorylation at T231 & S235). […]
Brain pathologies were evaluated in a group of mice at 4 and 6 months of age.

[5] = test system: hTAU mice; assay: Nesting activity assay in e-PES injected hTAU mice; assay type: in vivo, mouse
Procedure: FIG. 21A: provides photographs of representative nests constructed by the mice; FIG. 21B and FIG. 21D provide bar graphs showing nestlet score for 4-month old (FIG. 21B) and 6-month old (FIG. 21D) mice; FIG. 21C and FIG. 21E provide bar graphs showing untorn nestlet weight for 4-month old (FIG. 21C) and 6-month old (FIG. 21E) mice.
Nesting activity was assessed using a modified scoring criteria to rate the quality of nest construction and the amount of torn nestlet material. Following the nocturnal period, untorn nesting material was weighed, and nests were photographed for scoring on a 0-7 ordinal scale modified from published criteria. Nestlet scores and weights are shown as mean+SEM; *p<0.05 versus controls. Preeclampsia serum was used to observe significant effects in hTAU mice without waiting for 9-12 months of age.
(§2) 100 μL e-PES (early-onset preeclampsia serum) was injected in 10-12 weeks old non-pregnant female hTAU mice. The i.p. injection was performed once a week for 4 weeks. Trehalose treatment (2 g/kg/week) or saline (100 μL/week) was initiated after completion of 4 weeks of e-PES injection cycle. At the end of the trehalose treatment, a group of mice (n=5 for each group) was sacrificed after 2 weeks of resting biological activity (FIG. 18).
(§3) Another two groups were kept to assess their behavioral and brain pathological outcomes (i.e., nesting behavior and/or sensory motor coordination).

[6] = test system: hTAU mice; assay: Ledge assay (sensorimotor coordination) in e-PES injected hTAU mice; assay type: in vivo, mouse; conditions: for falling off of the ledge / mobility: e-PES+trehalose mice
Description: FIGS. 22A-22C provide the results of sensory-motor coordination studies utilizing a ledge assay. hTAU mice were compared to hTAU mice injected with e-PES at 10-12 weeks age (n=5) with or without trehalose administration. […] FIG. 22C provides a bar graph comparing time spent on the ledge (seconds) for each subset of mice (i.e., hTAU control, PES 49, and PES 49+trehalose).
Sensorimotor coordination deficits were detected by the ledge assay. In the ledge assay, mice were placed on the elevated cage's ledge at a height of 35 cm and width of 0.8 cm and their movement was monitored. Each mouse was tested three times (approximately 20 seconds) and scored from 0 to 3 depending on the severity of deficits.
as §2, §3

[7] = for humans, by the FDA, based on safety studies in mice, rats and rabbits, including during pregnancy; cited from earlier work
[8] = e-PES alone compared to control and e-PES+trehalose treated hTAU mice (n=5), 6 months

OC[C@H]1O[C@H](O[C@H]2O[C@H](CO)[C@@H](O)[C@H](O)[C@H]2O)[C@H](O)[C@@H](O)[C@@H]1O [trehalose, (2R,2′R,3 S,3′S,4S,4′S,5R,5′R,6R,6′R)-6,6′-oxybis(2-(hydroxymethyl)tetrahydro-2H-pyran-3,4,5-triol)]
onset of AD features [1]: inhibited the onset of AD features
AD serum-caused protein aggregation [2]: could be inhibited
AD serum-caused protein aggregation [3]: could be inhibited
hTAU burden [4]: reduced hTAU burdern
nestlet score at 4 months of age ([5]; between control and indicated treatment groups, 4 month old hTAU mice): no significant changes
nestlet score at 6 months of age [5, 8]: significantly lower nestlet scores
untorn nestlet weight at 6 months of age [5, 8]: significantly greater untorn nestlet weights
cognitive decline ([5]; limited (4 weeks) treatment with trehalose, 2 g/kg/week): improved cognitive decline
falling off of the ledge / mobility [6]: immobile, not falling off
falling off of the ledge / mobility ([6]; listed as Trehalose): did not fall off of the ledge frequently
motor activity ([6]; trehalose 2 g/kg/week for 4 weeks after e-PES injection): could not restore motor activity completely
sensorimotor coordination deficits ([6]; trehalose 2 g/kg/week for 4 weeks after e-PES injection at 10-12 weeks of age): partially prevented
time spent on the ledge ([6]; trehalose treated mice (n=5) compared to only e-PES treated mice): significantly more time on the ledge
safety status [7]: generally regarded as safe
